Data reported in patent US20200188477A1, “A MEDICAMENT FOR THE TREATMENT OF DISEASES BY BIOFILM FORMING MICROORGANISMS” (priority 2017, published 2020).
Values after ≈ are worked out from the molar mass of the structure shown. Where two headings read alike, the source gives them in different places.

Test system: M. smegmatis
Test: microbe, parasite or virus in culture
Type: cell-based, Mycobacterium smegmatis
Conditions: for MIC: Mycolicibacterium smegmatis

Row | SMILES | MIC (absence of acarbose, PpiB (Tet+), read-out: MIC) | MIC (absence of acarbose, VC (Tet+), read-out: MIC) | MIC (absence of cyclosporine A, PpiB (tet+), read-out: minimum inhibitory concentration (MIC)) | MIC (absence of cyclosporine A, […], read-out: minimum inhibitory concentration (MIC)) | MIC (presence of acarbose, PpiB (Tet+), read-out: MIC) | MIC (presence of cyclosporine A, PpiB (tet+), read-out: MIC) | MIC (presence of cyclosporine A, […], read-out: MIC) | concentration that inhibits culture (absence of cyclosporine A, […]) | inhibitory effect on culture (presence of cyclosporine A, […])
1 | NNC(=O)c1ccncc1 [isoniazide] | 64 µg/mL (≈ 467 µM) | 16 µg/mL (≈ 117 µM) | 64 µg/mL (≈ 467 µM) | 16 µg/mL (≈ 117 µM) | 32 µg/mL | 32 µg/mL | 8 µg/mL |  | 
2 | CC[C@@H](CO)NCCN[C@@H](CC)CO [ethambutol] |  |  |  |  |  |  |  | 4 µg/mL | enhanced
